Assay results taken from ChEMBL document CHEMBL5034032, “Discovery and Structure-Based Optimization of Fragments Binding the Mixed Lineage Kinase Domain-like Protein Executioner Domain” (J Med Chem, 2021).

Experiments:
[1] = molecular target: T1, Mixed lineage kinase domain-like protein (Homo sapiens, UniProt Q8NB16); assay: Binding affinity to MLKL N-terminal executioner domain (2 to 154 residues)(unknown origin) assessed as dissociation constant by TROSY-HSQC NMR titration analysis
T1 sequence (Q8NB16 whole entry): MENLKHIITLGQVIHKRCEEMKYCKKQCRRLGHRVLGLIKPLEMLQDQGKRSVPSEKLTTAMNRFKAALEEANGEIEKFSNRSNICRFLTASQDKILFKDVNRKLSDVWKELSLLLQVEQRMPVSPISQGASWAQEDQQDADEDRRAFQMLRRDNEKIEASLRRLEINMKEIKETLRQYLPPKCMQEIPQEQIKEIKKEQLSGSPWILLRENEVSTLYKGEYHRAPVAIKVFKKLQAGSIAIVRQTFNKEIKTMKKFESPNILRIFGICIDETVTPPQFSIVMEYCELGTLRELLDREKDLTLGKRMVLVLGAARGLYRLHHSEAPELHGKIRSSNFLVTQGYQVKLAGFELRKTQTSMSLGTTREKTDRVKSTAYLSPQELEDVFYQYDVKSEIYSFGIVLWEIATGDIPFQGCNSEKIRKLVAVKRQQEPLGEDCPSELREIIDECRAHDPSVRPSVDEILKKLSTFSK

[2] = Permeability of compound by PAMPA assay; assay type: ADME; details: read-out: permeability

Kd [1] | Papp [2] | SMILES
5530 µM |  | CCCCCCCCCO[C@@H]1O[C@H](CO)[C@@H](O[C@H]2O[C@H](CO)[C@@H](O)[C@H](O)[C@H]2O)[C@H](O)[C@H]1O
 | 0.031 ×10⁻⁶ cm/s | CO[C@@H](c1ccc(C(C)C)cc1)c1nc2ccc(C(=O)O)cc2[nH]1
73 µM |  | COCCOCn1c(S(C)(=O)=O)nc2c1c(=O)n(C)c(=O)n2C
